Measured values reported in US9649305B2, “PFKFB3 inhibitor and methods of use as an anti-cancer therapeutic” (ADVANCED CANCER THERAPEUTICS, LLC, priority 2012, dated 2017).
Like-named read-outs stand apart in the source and are kept apart here.

How the values were obtained:
PFKFB3 = PFKFB3 (Homo sapiens, UniProt Q16875); experiment: Enzymatic activity of recombinant PFKFB3, ADP-Glo assay; assay type: biochemical
Experimental: The inducible bifunctional 6-Phosphofructo-2-kinase/fructose2,6-biphosphatase enzyme (PFKFB3) was expressed and purified in order to determine if PFK-158 inhibits enzymatic activity. PFKFB3 was prepared by expression in E. coli and purified by GST column and column chromatography. […] The recombinant protein was pure and active as determined by the results of a commercially available kinase activity assay (ADP-Glo™, Promega, Madison, Wis.).

[1] = system: Jurkat cell line (leukemia cell line); experiment: Toxicity / cell growth of Jurkat cell line; assay type: cell-based; conditions: Homo sapiens
Experimental: (§1) The ability of PFK-158 to kill or inhibit the proliferation of cancer cells was measured using either the MTT assay, the alamarBlue® assay (Invitrogen, Grand Island, N.Y.), or the CellTiter Glo™ assay (Promega, Madison, Wis.) using 48 or 72 hours exposure.
(§2) Cells of the desired tumor cell line were plated at 2×10^5 cells/ml in 96 well plates. Twice the indicated concentrations of the compounds of the invention were added to cells the following day in an equal volume of media. 72 hours later, cells were lysed and subjected to ATP determination using the CellTiter-Glo™ Luminescent Cell Viability Assay kit. Experiments were performed in triplicate. When using the MTT assay or the alamarBlue® assay, the experimental conditions are essentially similar; at the end of the incubation period, 20 microliters of the MTT solution is added per well and the samples are incubated for an additional four hours, rinsed, and absorbance at 570 nm was measured. Results for the inhibition of cell proliferation are reported as the IC50 (the concentration resulting in 50% inhibition of proliferation of the cell population) and are listed in Table 5 below. Cell lines include lung, colon, prostate, breast, ovarian, and pancreatic cancer lines.

A498 = experiment: Cancer cell proliferation, MTT assay; assay type: cell-based; conditions: Homo sapiens, 48 hours
Experimental: as §1, §2

A549 = experiment: Cancer cell proliferation, MTT assay; assay type: cell-based; conditions: Homo sapiens, 48 hours
Experimental: as §1, §2

BT474 = experiment: Cancer cell proliferation, MTT assay; assay type: cell-based; conditions: Homo sapiens, BT-474, 48 hours
Experimental: as §1, §2

HCT116 = experiment: Cancer cell proliferation, MTT assay; assay type: cell-based; conditions: Homo sapiens, HCT-116, 48 hours
Experimental: as §1, §2

HT29 = experiment: Cancer cell proliferation, MTT assay; assay type: cell-based; conditions: Homo sapiens, HT-29, 48 hours
Experimental: as §1, §2

MiaPaCa-2 = experiment: Cancer cell proliferation, MTT assay; assay type: cell-based; conditions: Homo sapiens, MIA PaCa-2; MiaPaCa-2, MTT assay, 48 hours
Experimental: as §1, §2

PC-3 = experiment: Cancer cell proliferation, MTT assay; assay type: cell-based; conditions: Homo sapiens; PC-3, MTT assay, 48 hours
Experimental: as §1, §2

SK-BR-3 = experiment: Cancer cell proliferation, MTT assay; assay type: cell-based; conditions: Homo sapiens; SK-BR-3, MTT assay, 48 hours
Experimental: as §1, §2

SKOV-3 = experiment: Cancer cell proliferation, MTT assay; assay type: cell-based; conditions: Homo sapiens, SK-OV-3; SKOV-3, MTT assay, 48 hours
Experimental: as §1, §2

SW620 = experiment: Cancer cell proliferation, MTT assay; assay type: cell-based; conditions: Homo sapiens, SW-620, 48 hours
Experimental: as §1, §2

[2] = IV pharmacokinetics in mice; assay type: in vivo, Balbc mice
Experimental: (§3) The pharmacokinetic (PK) parameters for PFK-158 were determined in mice following IV (intravenous) administration in mice and rats. A typical study design includes six animals (male or female) 7 to 8 weeks old.
(§4) Mouse pharmacokinetic properties using a dose of 5 mg/kg were determined after IV administration using a 10% DMSO, 10% PEG-200, 10% Solutol:ethanol (1:1) and 70% D5W solution or any other pharmaceutically acceptable parenteral formulation. Blood samples were collected at different intervals. Plasma samples were extracted and analyzed using an LC-MS/MS method. Similar protocols were used for the rat PK study (Sprague Dawley rats; 30 mg/kg), although the formulation for rat PK studies differed (30% Captisol, pH 3.0 solution). Time vs. plasma concentration plots were prepared as shown in FIGS. 4 (BalbC mice) and 5 (SD rats), respectively. Pharmacokinetic parameters were calculated and are provided below in Table 7.

[3] = IV pharmacokinetics in rats, 30 mg/kg; assay type: in vivo; conditions: Table 7, Rat (30 mg/kg), Sprague Dawley rats
Experimental: as §3, §4

[4] = Maximum tolerated dose study; assay type: in vivo; conditions: 3 days on/3 days off schedule
Experimental: Several maximum tolerated dose studies and toxicology studies were performed and the results indicated PFK-158 is safer than PFK-015. Studies were performed in C57/B16 mice and SD rats.

LLC tumor = experiment: Lewis lung carcinoma (LLC) model; assay type: in vivo; conditions: IP 60 mg/kg on days 1, 3, 5, 7, 9, 11, 13
From the text: Treatment began following randomization.

[5] = Chemical stability of Cremophor based IV formulation; assay type: physicochemical; conditions: about 1 mg/ml in Cremophor:ethyl alcohol 1:1 diluted 1:9 in saline, WFI, lactate Ringer's or D5W
Experimental: PFK-158 and its salts can be prepared in a Cremophor® based formulation. In one embodiment, 10 mg PFK-158 are dissolved in 1 ml of 1:1 v:v Cremophor®:ethyl alcohol solution using vigorous stirring. Once the compound is effectively dissolved, the solution is filtered and then added to saline, water for injection, lactate Ringer's, or D5W in a 1:9 ratio, resulting in a clear solution, free from particles, with a PFK-158 concentration of about 1 mg/ml. The composition is chemically stable for at least 6 hours and can be administered to mammals, including humans.

[6] = Photoisomerization in formulation; assay type: physicochemical; conditions: phospho-lipidic aqueous emulsion or emulsifier-free, solvent-free aqueous solution
From the text: Further, the solubility properties of PFK-158 are such that, if required, the compound can be administered using either a phospho-lipidic aqueous based emulsion, or in an emulsifier-free, solvent-free aqueous based solution.

[7] = Table 7, Mouse (5 mg/kg), IV, Balbc mice
[8] = mouse, plasma, 5 mg/kg, Table 2, Balbc mice, IV dosing

Sequence of PFKFB3 (Q16875 whole entry): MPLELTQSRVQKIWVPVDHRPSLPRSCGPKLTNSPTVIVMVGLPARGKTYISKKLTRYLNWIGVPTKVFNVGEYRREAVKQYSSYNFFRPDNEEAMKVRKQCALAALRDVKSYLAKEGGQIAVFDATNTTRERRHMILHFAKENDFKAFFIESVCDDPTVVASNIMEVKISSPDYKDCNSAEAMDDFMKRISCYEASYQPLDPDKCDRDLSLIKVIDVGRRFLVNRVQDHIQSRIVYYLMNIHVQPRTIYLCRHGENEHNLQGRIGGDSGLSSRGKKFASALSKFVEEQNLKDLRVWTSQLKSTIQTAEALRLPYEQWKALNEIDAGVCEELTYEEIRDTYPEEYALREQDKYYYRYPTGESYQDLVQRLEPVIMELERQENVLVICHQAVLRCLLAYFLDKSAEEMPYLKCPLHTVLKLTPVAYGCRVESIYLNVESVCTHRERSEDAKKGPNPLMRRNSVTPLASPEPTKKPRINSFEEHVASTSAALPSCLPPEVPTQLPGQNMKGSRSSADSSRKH

**Q.** What does the source list for `O=C(/C=C/c1ccc2ccc(C(F)(F)F)cc2n1)c1ccncc1` [PFK-158, (E)-1-(pyridyn-4-yl)-3-(7-(trifluoromethyl)quinolin-2-yl)-prop-2-en-1-one]?
**A.** IC50 (PFKFB3; FIG. 1, read-out: IC50, inhibition of recombinant PFKFB3 (ADP-Glo)): 137 ± 15 nM; IC50 (PFKFB3; Table 1, read-out: IC50, Enzymatic activity of PFKFB3, ADP Glo Assay): 137 ± 15 nM; IC50 (PFKFB3; Table 6, read-out: IC50 Rec PFKFB3): 137 ± 15 nM; IC50 (PFKFB3; Table 8, read-out: IC50, Enzymatic activity of PFKFB3, ADP-Glo Assay): 137 ± 15 nM; IC50 ([1]; Jurkat, Table 1, read-out: IC50, toxicity of Jurkat cell line (leukemia cell line)): 330 ± 100 nM; IC50 ([1]; Table 6, Jurkat cells, read-out: IC50 Cell Growth): 328 ± 15 nM; IC50 (A498): 3.51 µM; IC50 (A549): 8.65 µM; IC50 (BT474): 1950 nM; IC50 (HCT116): 3.4 µM; IC50 (HT29): 4.13 µM; IC50 (MiaPaCa-2): 3.35 µM; IC50 (PC-3): 1180 nM; IC50 (SK-BR-3): 1600 nM; IC50 (SKOV-3): 2620 nM; IC50 (SW620): 2670 nM; AUC(0-inf) [2, 7]: 3,235 ng · h/ml; Cmax [2, 7]: 4,176 ng/mL; T1/2b [2, 7]: 10.4 h; AUC(0-inf) ([2]; Table 9, BalbC mice, IV dosing): 3235 ng·h/mL; T1/2 ([2]; Table 9, BalbC mice, IV dosing): 10.5 h; clearance [2, 8]: 26 mL/min/kg; half-life [2, 8]: 630 min; AUC(0-inf) ([2]; mouse, plasma, 5 mg/kg, Table 2, Balbc mice, IV dosing, read-out: AUC0-inf): 3240 ng·h/mL; Cmax ([2]; mouse, plasma, 5 mg/kg, Table 2, Balbc mice, IV dosing, read-out: Cmax): 4180 ng/mL; T1/2b [3]: 8.6 h; AUC(0-inf) ([3]; plasma): 3300 ng·h/mL; Cmax ([3]; plasma): 18900 ng/mL; MTD ([4]; C57/B16, mouse, in vivo, read-out: MTD): > 45 mg/kg; MTD ([4]; Table 4, body weight loss superior to 10% or death): Not reached, >45 mg/kg; body weight loss (tolerability) (LLC tumor): no noticeable body weight loss; chemical stability of composition [5]: at least 6 hours; photoisomerization in solution [6]: does not, in the formulation mentioned above, undergo a rapid photoisomerization
